Molecular target: T1, Axl (Homo sapiens, UniProt P30530)
T1 construct: Cells: Hela cells; endogenous in cells; host or cells: HeLa cells
T1 sequence (P30530 26-894): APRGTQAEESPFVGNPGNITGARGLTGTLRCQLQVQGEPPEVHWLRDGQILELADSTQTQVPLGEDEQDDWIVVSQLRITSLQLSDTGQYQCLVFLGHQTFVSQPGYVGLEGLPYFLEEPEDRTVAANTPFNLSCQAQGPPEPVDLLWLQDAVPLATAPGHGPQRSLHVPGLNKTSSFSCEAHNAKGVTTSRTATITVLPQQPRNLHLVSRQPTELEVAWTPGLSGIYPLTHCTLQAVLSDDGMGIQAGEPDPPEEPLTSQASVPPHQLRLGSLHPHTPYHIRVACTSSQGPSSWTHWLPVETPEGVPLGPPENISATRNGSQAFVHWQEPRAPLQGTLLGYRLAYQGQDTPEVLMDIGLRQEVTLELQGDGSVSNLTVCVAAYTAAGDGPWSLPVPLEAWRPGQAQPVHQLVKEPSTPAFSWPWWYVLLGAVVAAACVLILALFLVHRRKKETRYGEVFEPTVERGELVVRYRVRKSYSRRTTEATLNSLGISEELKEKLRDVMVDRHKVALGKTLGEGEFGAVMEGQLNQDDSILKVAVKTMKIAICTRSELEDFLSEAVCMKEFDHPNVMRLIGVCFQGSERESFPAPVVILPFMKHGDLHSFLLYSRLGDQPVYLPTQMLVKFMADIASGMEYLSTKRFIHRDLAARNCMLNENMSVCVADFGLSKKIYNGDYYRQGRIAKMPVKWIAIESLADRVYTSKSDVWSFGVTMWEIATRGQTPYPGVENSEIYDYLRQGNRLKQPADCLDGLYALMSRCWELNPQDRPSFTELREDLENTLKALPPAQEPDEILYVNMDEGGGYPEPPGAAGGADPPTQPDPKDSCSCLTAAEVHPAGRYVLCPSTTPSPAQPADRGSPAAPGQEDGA
Experiment: Phospho-Akt in-cell Western assay (inhibition of Axl activity)
Type: cell-based
Details: Hela cells; 1 hr pre-treatment; stimulation by Axl-antibody cross-linking; phospho-Akt chemiluminescence normalized to relative cell number
Description: The compounds of the invention were tested in the following assay for their ability to inhibit Axl activity.
Phospho-Akt in-Cell Western Assay
• Cell culture plate: 96 well assay plate (Corning 3610), white, clear bottom, tissue-culture treated. • Cells: Hela cells. • Starvation medium: For Axl stimulation: 0.5% FCS (fetal calf serum) in DMEM, plus Axl/Fc (extracellular domain of AXL fused to immunoglobulin Fc region) (R&D, 154-AL) 500 ng/mL. • For EGF (epidermal growth factor) stimulation: 0.5% FCS in DMEM (Dulbecco's modified Eagles medium). • Poly-L-Lysine 0.01% solution (the working solution): […], dilute In PBS (phosphate buffered saline). • Axl antibody cross-linking: • 1st: Mouse anti-Axl (R&D, MAB154). • 2nd: Biotin-SP-conjugated AffiniPure goat anti-mouse IgG (H+ L) (Jackson ImmunoResearch #115-065-003). • Fixing buffer: 4% formaldehyde in PBS. • Wash buffer: 0.1% TritonX-100 in PBS. • Quenching buffer: 3% H2O2, 0.1% Azide in wash buffer, Azide and hydrogen peroxide (H2O2) are added fresh. • Blocking buffer: 5% BSA in TBST (tris buffered saline plus 0.1% Tween 20). • Primary antibody: Rabbit anti-human Phospho-Akt antibody (Cell Signaling 9271): 1×250 diluted in blocking buffer. • Secondary antibody: HRP (horse radish peroxidase)-conjugated Goat anti-Rabbit secondary, stock solution: Jackson ImmunoResearch (Goat anti-Rabbit HRP, #111-035-144) 1:1 diluted in glycerol, store at −20° C. The working solution: 1×2000 dilution of stock in blocking buffer. • Chemiluminescent working solution (Pierce, 37030): SuperSignal ELISA (enzyme linked immunosorbant assay) Pico Chemiluminescent substrate. • Crystal Violet solution: Stock: 2.5% Crystal violet in methanol, filtered and kept at ambient temperature. The working solution: dilute the stock 1:20 with PBS immediately before use. • 10% SDS: working solution: 5% SDS (sodium dodecylsulfate), diluted in PBS Methods: Day 1:
A 96 well TC (tissue culture treated) plate was coated with 10 μg/mL poly-L-Lysine at 37° C. for 30 min, washed twice with PBS, and air-dried for 5 minutes before cells were added. Hela cells were seeded at 10,000 cells/well and the cells were starved in 100 μL starvation medium containing Axl/Fc for 24 hrs.
The cells were pre-treated with test compounds by adding 100 μL of 2× test compound to the starvation medium on the cells. The cells were incubated at 37° C. for 1 hr before stimulation.
The cells were stimulated by Axl-antibody cross-linking as follows: A 5× 1st/2nd Axl antibody mixture was made (37.5 μg/mL 1st/100 μg/mL 2nd) in starvation medium and nutated at 4° C. with thorough mixing for 1-2 hours for clustering. The resulting mix was warmed to 37° C. 50 μL of 5× Axl 1st/2nd of antibody cluster was added to the cells and the cells were incubated at 37° C. for 5 min.
After 5 minutes stimulation, the plate was flicked to remove medium and the plate was tapped onto paper towels. Formaldehyde (4.0% in PBS, 100 μL) was added to fix the cells and the cells were incubated at ambient temperature for 20 min without shaking.
The cells were washed with a plate washer buffer to remove the formaldehyde solution. The plate was flicked to removed excess wash buffer and tapped onto paper towels. Quenching buffer (100 μL) was added to each well and the cells were incubated at ambient temperature for 20 minutes without shaking.
The cells were washed with a plate washer buffer to remove the quenching buffer. Blocking buffer (100 μL) was added and the cells were incubated at ambient temperature for at least an hour with gentle shaking.
The cells were washed with a plate washer buffer and diluted primary antibody (50 μL) was added to each well (blocking buffer was added to the negative control wells instead). The plates were incubated overnight at 4° C. with gentle shaking.
The wash buffer was removed, diluted secondary antibody (100 μL) was added, and the cells were incubated at ambient temperature for 1 hour with gentle shaking. […]

Row | Compound | IC50 [µM]
1 | Nc1nc(Nc2ccc(N3CCN(c4ccc(F)cc4)CC3)cc2)nn1-c1ncc2c(n1)CCCCCC2 [Compound 13, N^3-(4-(4-(4-fluorophenyl)piperazin-1-yl)phenyl)-1-(5,6,7,8,9,10-hexahydrocycloocta[d]pyrimidin-2-yl)-1H-1,2,4-triazole-3,5-diamine] | > 20
2 | CC(C)(COc1ccc(Nc2nc(N)n(-c3ncc4c(n3)CCCCCC4)n2)cc1)N1CCCC1 [Compound 15, 1-(5,6,7,8,9,10-hexahydrocycloocta[d]pyrimidin-2-yl)-N^3-(4-(2-methyl-2-(pyrrolidin-1-yl)propoxy)phenyl)-1H-1,2,4-triazole-3,5-diamine] | < 1
3 | CCOC(=O)N1CCN(c2ccc(Nc3nc(N)n(-c4ncc5c(n4)CCCCCC5)n3)cc2F)CC1 [Compound 14, ethyl 4-(4-(5-amino-1-(5,6,7,8,9,10-hexahydrocycloocta[d]pyrimidin-2-yl)-1H-1,2,4-triazol-3-ylamino)-2-fluorophenyl)piperazine-1-carboxylate] | 1 to 10
4 | CN1CCc2ccc(Nc3nc(N)n(-c4ncc5c(n4)CCCCCC5)n3)cc2C1 [Compound 12, 1-(5,6,7,8,9,10-hexahydrocycloocta[d]pyrimidin-2-yl)-N^3-(2-methyl-1,2,3,4-tetrahydroisoquinolin-7-yl)-1H-1,2,4-triazole-3,5-diamine] | > 20
5 | Nc1nc(Nc2ccc(N3CCN(C4CCCCC4)CC3)cc2)nn1-c1cc2c(nn1)CCCCCC2 [Compound 16, N^3-(4-(4-cyclohexylpiperazin-1-yl)phenyl)-1-(5,6,7,8,9,10-hexahydrocycloocta[c]pyridazin-3-yl)-1H-1,2,4-triazole-3,5-diamine] | < 1

Second part, the compound after the results:

Row | IC50 [µM] | Compound
6 | < 1 | Nc1nc(Nc2ccc(N3CCC(CN4CCCC4)CC3)nc2)nn1-c1ncnc2c1CCCCCC2 [Compound 52, N^3-(6-(4-((pyrrolidin-1-yl)methyl)piperidin-1-yl)pyridin-3-yl)-1-(5,6,7,8,9,10-hexahydrocycloocta[d]pyrimidin-4-yl)-1H-1,2,4-triazole-3,5-diamine]
7 | < 1 | Nc1nc(Nc2ccc(N3CCC(N4CCCCCC4)CC3)nc2)nn1-c1ncnc2c1CCCCCC2 [Compound 51, N^3-(6-(4-(azepan-1-yl)piperidin-1-yl)pyridin-3-yl)-1-(5,6,7,8,9,10-hexahydrocycloocta[d]pyrimidin-4-yl)-1H-1,2,4-triazole-3,5-diamine]
8 | < 1 | Cc1csc2c(-n3nc(Nc4ccc5c(c4)CC(N4CCCC4)CCCC5)nc3N)nc(Cl)nc12 (stereo not drawn) [Compound 29, 1-(2-chloro-7-methylthieno[3,2-d]pyrimidin-4-yl)-N^3-(9-(pyrrolidin-1-yl)-5,6,7,8,9,10-hexahydrobenzo[8]annulen-2-yl)-1H-1,2,4-triazole-3,5-diamine]
9 | < 1 | Cc1csc2c(-n3nc(Nc4cnc5c(c4)CCC(N4CCCC4)CCC5)nc3N)nc(Cl)nc12 (stereo not drawn) [Compound 37, 1-(2-chloro-7-methylthieno[3,2-d]pyrimidin-4-yl)-N^3-(7-(pyrrolidin-1-yl)-5,6,7,8,9,10-hexahydrocycloocta[b]pyridin-3-yl)-1H-1,2,4-triazole-3,5-diamine]
10 | < 1 | Nc1nc(Nc2ccc(OCCN3CCCC3)cc2)nn1-c1cc2c(nn1)CCCCCC2 [Compound 18, 1-(5,6,7,8,9,10-hexahydrocycloocta[c]pyridazin-3-yl)-N^3-(4-(2-(pyrrolidin-1-yl)ethoxy)phenyl)-1H-1,2,4-triazole-3,5-diamine]
11 | < 1 | Cc1csc2c(-n3nc(Nc4cnc5c(c4)CCC(NC4CCCCC4)CCC5)nc3N)ncnc12 (stereo not drawn) [Compound 43, N^3-(7-(cyclohexylamino)-5,6,7,8,9,10-hexahydrocycloocta[b]pyridin-3-yl)-1-(7-methylthieno[3,2-d]pyrimidin-4-yl)-1H-1,2,4-triazole-3,5-diamine]
12 | 1 to 10 | Nc1nc(Nc2ccc(OCCN3CCCC3)cc2)nn1-c1cc(-c2ccccc2)c2c(n1)CCCCCC2 [Compound 47, N^3-(4-(2-(pyrrolidin-1-yl)ethoxy)phenyl)-1-(4-phenyl-5,6,7,8,9,10-hexahydrocycloocta[b]-pyridin-2-yl)-1H-1,2,4-triazole-3,5-diamine]
